# Results taken from patent US8415308B2, “1′-substituted-carba-nucleoside prodrugs for antiviral treatment” (Gilead Sciences, Inc., priority 2010, dated 2013).
# Biological target: T1, HCV Δ21 NS5b polymerase (Hepatitis C virus genotype 1b, UniProt Q9WMX2)
# T1 construct: 75 nM HCV Δ21 NS5b polymerase
# Assay: HCV IC50 determination, NS5b polymerase assay
# Assay type: biochemical
# Conditions: not given
# Description: Assay Protocol: NS5b polymerase assay (40 μL) was assembled by adding 28 μL polymerase mixture (final concentration: 50 mM Tris-HCl at pH 7.5, 10 mM KCL, 5 mM MgCl2, 1 mM DTT, 10 mM EDTA, 4 ng/μL of RNA template, and 75 nM HCV Δ21 NS5b polymerase) to assay plates followed by 4 μL of compound dilution. The polymerase and compound were pre-incubated at 35° C. for 10 minute before the addition of 8 μL of nucleotide substrate mixture (33P-α-labeled competing nucleotide at KM and 0.5 mM of the remaining three nucleotides). The assay plates were covered and incubated at 35° C. for 90 min. Reactions were then filtered through 96-well DEAE-81 filter plates via vacuum. The filter plates were then washed under vacuum with multiple volumes of 0.125 M NaHPO4, water, and ethanol to remove unincorporated label. Plates were then counted on TopCount to assess the level of product synthesis over background controls. The IC50 value is determined using Prism fitting program.
row,SMILES,IC50 [nM]
1,C[C@@]1(O)[C@H](O)[C@@H](COP(=O)(O)OP(=O)(O)OP(=O)(O)O)O[C@@]1(C#N)c1ccc2c(N)ncnn12 [Compound 7],< 1000

# System: Replicon cells
# Assay: HCV EC50 determination in replicon cells (luciferase)
# Assay type: cell-based
# Conditions: Hepatitis C virus, 72 h
# Description: Replicon cells were seeded in 96-well plates at a density of 8×10^3 cells per well in 100 μL of culture medium, excluding Geneticin. Compound was serially diluted in 100% DMSO and then added to the cells at a 1:200 dilution, achieving a final concentration of 0.5% DMSO and a total volume of 200 μL. Plates were incubated at 37° C. for 3 days, after which culture medium was removed and cells were lysed in lysis buffer provided by Promega's luciferase assay system. Following the manufacturer's instruction, 100 μL of luciferase substrate was added to the lysed cells and luciferase activity was measured in a TopCount luminometer.
# The specific activity observed may vary according to and depending on the particular replicon tested, the active compound selected or whether there are present pharmaceutical carriers, as well as the type of formulation and mode of administration employed, and such expected variations or differences in the results are contemplated in accordance with practice of the present invention.
row,SMILES,EC50 [nM]
1,CC(C)OC(=O)[C@H](C)N[P@](=O)(OC[C@H]1O[C@@](C#N)(c2ccc3c(N)ncnn23)[C@](C)(O)[C@@H]1OC(=O)C(C)C)Oc1ccccc1 [Compound 8A],96 to 360
2,CC(C)OC(=O)[C@H](C)N[P@@](=O)(OC[C@H]1O[C@@](C#N)(c2ccc3c(N)ncnn23)[C@](C)(O)[C@@H]1OC(=O)C(C)C)Oc1ccccc1 [Compound 8B],460 to 1900
3,CC(C)OC(=O)[C@H](C)NP(=O)(OC[C@H]1O[C@@](C#N)(c2ccc3c(N)ncnn23)[C@](C)(O)[C@@H]1OC(=O)C(C)C)Oc1ccccc1 (stereo partly drawn) [Compound 8],140 to 520
4,CC(C)OC(=O)[C@H](C)NP(=O)(OC[C@H]1O[C@@](C#N)(c2ccc3c(N)ncnn23)[C@](C)(O)[C@@H]1O)Oc1ccccc1 (stereo partly drawn) [Compound 6],480 to 1800

# Same assay, conditions: Hepatitis C virus, 72 h; replicon cells, 3 days, luciferase activity; read-out: EC50
row,SMILES,EC50 [nM]
1,CC(=O)O[C@@H]1[C@@H](COP(=O)(N[C@@H](C)C(=O)OC(C)C)N[C@@H](C)C(=O)OC(C)C)O[C@@](C#N)(c2ccc3c(N)ncnn23)[C@]1(C)O [Compound 65],8400
2,CC(C)OC(=O)[C@H](C)NP(=O)(N[C@@H](C)C(=O)OC(C)C)OC[C@H]1O[C@@](C#N)(c2ccc3c(N)ncnn23)[C@](C)(O)[C@@H]1O [Compound 61],51000
3,CC(C)OC(=O)[C@H](C)NP(=O)(N[C@@H](C)C(=O)OC(C)C)OC[C@H]1O[C@@](C#N)(c2ccc3c(N)ncnn23)[C@](C)(O)[C@@H]1OC(=O)C(C)C [Compound 64],5380
4,C[C@@]1(O)[C@H](O)[C@@H](CO)O[C@@]1(C#N)c1ccc2c(N)ncnn12 [Compound 5],> 89000
